Data: patent US9315503B2, “Kinase inhibitors” (CHIESI FARMACEUTICI S.p.A., priority 2011, dated 2016)
Structures can show the parent of a compound that is named as a salt.

Legend:
[1] = molecular target: T1, p38alpha (Homo sapiens, UniProt Q16539); test: P38Alpha enzyme inhibition assay (Alphascreen kinase activity assay); format: biochemical; conditions: 100 pM p38alpha, 250 μM ATP, 2 hours pre-incubation at 25° C., read-out: p38α inhibition (IC50 values)
T1 construct: purchased Invitrogen PV3304
T1 sequence (Q16539 whole entry): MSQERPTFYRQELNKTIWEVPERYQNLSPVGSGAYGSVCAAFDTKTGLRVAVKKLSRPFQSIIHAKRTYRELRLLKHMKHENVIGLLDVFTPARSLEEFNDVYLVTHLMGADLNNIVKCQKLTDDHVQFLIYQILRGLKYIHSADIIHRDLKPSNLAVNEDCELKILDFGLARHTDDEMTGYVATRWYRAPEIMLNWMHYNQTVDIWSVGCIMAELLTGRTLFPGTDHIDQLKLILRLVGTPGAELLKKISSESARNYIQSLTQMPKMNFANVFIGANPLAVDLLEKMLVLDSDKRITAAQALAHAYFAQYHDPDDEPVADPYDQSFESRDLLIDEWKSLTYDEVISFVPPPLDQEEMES
Outline: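 p38α (100 pM) with ATF-2 fusion protein substrate (0.3 µg/ml) in pH 7.5 HEPES/MgCl2 buffer, 1% DMSO, preincubated 2 h at 25°C with compound. Reaction started with 250 µM ATP, ran 1 h at 25°C, then stopped with EDTA. Phospho-ATF2 antibody detected by AlphaScreen luminescence; IC50 from concentration-response curves.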

[2] = system: LPS-stimulated TNFα release from PBMCs; test: LPS-stimulated PBMC TNFα release assay; format: cell-based; conditions: inhibition of TNFα release, human PBMCs, LPS 10 ng/ml, 18 h, ELISA, read-out: p38α inhibition (IC50 values)
Outline: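 Healthy-donor human PBMCs, density-gradient isolated, preincubated 1 h at 37 °C with compound in 1% FBS RPMI 1640, then stimulated with LPS (10 ng/ml) for 18 h. Supernatant TNFα by ELISA; IC50 from dose-response of % inhibition of control release, n≥3 experiments.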

Structure (SMILES)	IC50 [1] [nM]	IC50 [2] [nM]
COc1c(NC(=O)N[C@H]2CC[C@@H](Oc3ccc4nnc([C@@H]5CCCN5C)n4c3)c3ccccc32)cc(C(C)(C)C)cc1NS(C)(=O)=O [Example 109, N-[5-tert-Butyl-2-methoxy-3-(3-{(1S,4R)-4-[3-((S)-1-methyl-pyrrolidin-2-yl)-[1,2,4]triazolo[4,3-a]pyridin-6-yloxy]-1,2,3,4-tetrahydro-naphthalen-1-yl}-ureido)-phenyl]-methanesulfonamide formate salt]	< 10	< 10
C[C@H]1CCCCN1c1nnc2ccc(O[C@@H]3CC[C@H](NC(=O)Nc4cc(C(C)(C)C)nn4CCO)c4ccccc43)cn12 [Example 110, 1-[5-tert-Butyl-2-(2-hydroxy-ethyl)-2H-pyrazol-3-yl]-3-{(1S,4R)-4-[3-((S)-2-methyl-piperidin-1-yl)-[1,2,4]triazolo[4,3-a]pyridin-6-yloxy]-1,2,3,4-tetrahydro-naphthalen-1-yl}-urea]	< 10	< 10
C[C@H]1CCCCN1c1nnc2ccc(O[C@@H]3CC[C@H](NC(=O)Nc4cc(C(C)(C)C)on4)c4ccccc43)cn12 [Example 111, 1-(5-tert-Butyl-isoxazol-3-yl)-3-{(1S,4R)-4-[3-((S)-2-methyl-piperidin-1-yl)-[1,2,4]triazolo[4,3-a]pyridin-6-yloxy]-1,2,3,4-tetrahydro-naphthalen-1-yl}-urea]	< 10	< 10
CC(C)(C)c1cc(NC(=O)N[C@H]2CC[C@@H](Oc3ccc4nnc(N5CCCCC5)n4c3)c3ccccc32)n(-c2cnn(CCN3CCOCC3)c2)n1 [Example 112, 1-[3-tert-Butyl-1′-(2-morpholin-4-yl-ethyl)-1′H-[1,4′]bipyrazolyl-5-yl]-3-[(1S,4R)-4-(3-piperidin-1-yl-[1,2,4]triazolo[4,3-a]pyridin-6-yloxy)-1,2,3,4-tetrahydro-naphthalen-1-yl]-urea formate salt]	< 10	< 10
CN(C)CCCn1cc(-n2nc(C(C)(C)C)cc2NC(=O)N[C@H]2CC[C@@H](Oc3ccc4nnc(N5CCCCC5)n4c3)c3ccccc32)cn1 [Example 113, 1-[3-tert-Butyl-1′-(3-dimethylamino-propyl)-1′H-[1,4′]bipyrazolyl-5-yl]-3-[(1S,4R)-4-(3-piperidin-1-yl-[1,2,4]triazolo[4,3-a]pyridin-6-yloxy)-1,2,3,4-tetrahydro-naphthalen-1-yl]-urea formate salt]	< 10	< 10
CC(C)(C)c1cc(NC(=O)N[C@H]2CC[C@@H](Oc3ccc4nnc(N5CCCCC5)n4c3)c3ccccc32)n(-c2cnn(CCCN3CCOCC3)c2)n1 [Example 114, 1-[3-tert-Butyl-1′-(3-morpholin-4-yl-propyl)-1′H-[1,4′]bipyrazolyl-5-yl]-3-[(1S,4R)-4-(3-piperidin-1-yl-[1,2,4]triazolo[4,3-a]pyridin-6-yloxy)-1,2,3,4-tetrahydro-naphthalen-1-yl]-urea formate salt]	< 10	< 10
C[C@@H]1CCC[C@H](C)N1c1nnc2ccc(O[C@@H]3CC[C@H](NC(=O)Nc4cc(F)cc(N5CCOCC5)c4)c4ccccc43)cn12 [Example 115, 1-{(1S,4R)-4-[3-((2S,6R)-2,6-Dimethyl-piperidin-1-yl)-[1,2,4]triazolo[4,3-a]pyridin-6-yloxy]-1,2,3,4-tetrahydro-naphthalen-1-yl}-3-(3-fluoro-5-morpholin-4-yl-phenyl)-urea]	< 10	< 10
C[C@H]1CCCCN1c1nnc2ccc(O[C@@H]3CC[C@H](NC(=O)Nc4cc(C(C)(C)C)nn4CCN4CCOCC4)c4ccccc43)cn12 [Example 116, 1-[5-tert-Butyl-2-(2-morpholin-4-yl-ethyl)-2H-pyrazol-3-yl]-3-{(1S,4R)-4-[3-((S)-2-methyl-piperidin-1-yl)-[1,2,4]triazolo[4,3-a]pyridin-6-yloxy]-1,2,3,4-tetrahydro-naphthalen-1-yl}-urea]	< 10	< 10
C[C@@H]1CCC[C@H](C)N1c1nnc2ccc(O[C@@H]3CC[C@H](NC(=O)Nc4cc(C(C)(C)C)nn4CCO)c4ccccc43)cn12 [Example 118, 1-[5-tert-Butyl-2-(2-hydroxy-ethyl)-2H-pyrazol-3-yl]-3-{(1S,4R)-4-[3-((2S,6R)-2,6-dimethyl-piperidin-1-yl)-[1,2,4]triazolo[4,3-a]pyridin-6-yloxy]-1,2,3,4-tetrahydro-naphthalen-1-yl}-urea]	< 10	< 10
CN(C)CCn1cnc(-n2nc(C(C)(C)C)cc2NC(=O)N[C@H]2CC[C@@H](Oc3ccc4nnc(N5CCCCC5)n4c3)c3ccccc32)c1 [Example 119, 1-{5-tert-Butyl-2-[1-(2-dimethylamino-ethyl)-1H-imidazol-4-yl]-2H-pyrazol-3-yl}-3-[(1S,4R)-4-(3-piperidin-1-yl-[1,2,4]triazolo[4,3-a]pyridin-6-yloxy)-1,2,3,4-tetrahydro-naphthalen-1-yl]-urea]	< 10	10 to 100
CN1CCCC[C@H]1c1nnc2ccc(O[C@@H]3CC[C@H](NC(=O)Nc4cc(C(C)(C)C)nn4CCO)c4ccccc43)cn12 [Example 120, 1-[5-tert-Butyl-2-(2-hydroxy-ethyl)-2H-pyrazol-3-yl]-3-{(1S,4R)-4-[3-((S)-1-methyl-piperidin-2-yl)-[1,2,4]triazolo[4,3-a]pyridin-6-yloxy]-1,2,3,4-tetrahydro-naphthalen-1-yl}-urea]	< 10	< 10
C[C@@H]1CCC[C@H](C)N1c1nnc2ccc(O[C@@H]3CC[C@H](NC(=O)Nc4cc(C(C)(C)C)nn4CCN4CCOCC4)c4ccccc43)cn12 [Example 121, 1-[5-tert-Butyl-2-(2-morpholin-4-yl-ethyl)-2H-pyrazol-3-yl]-3-{(1S,4R)-4-[3-((2S,6R)-2,6-dimethyl-piperidin-1-yl)-[1,2,4]triazolo[4,3-a]pyridin-6-yloxy]-1,2,3,4-tetrahydro-naphthalen-1-yl}-urea]	< 10	< 10
CN(C)CCOc1cccc(-n2nc(C(C)(C)C)cc2NC(=O)N[C@H]2CC[C@@H](Oc3ccc4nnc(N5C6CCCC5CC6)n4c3)c3ccccc32)c1 [Example 122, 1-{(1S,4R)-4-[3-(8-Aza-bicyclo[3.2.1]oct-8-yl)-[1,2,4]triazolo[4,3-a]pyridin-6-yloxy]-1,2,3,4-tetrahydro-naphthalen-1-yl}-3-{5-tert-butyl-2-[3-(2-dimethylamino-ethoxy)-phenyl]-2H-pyrazol-3-yl}-urea formate salt]	< 10	< 10
C[C@@H]1CCCCN1c1nnc2ccc(O[C@@H]3CC[C@H](NC(=O)Nc4cc(C(C)(C)C)nn4-c4cccc(OCCN(C)C)c4)c4ccccc43)cn12 [Example 123, 1-{5-tert-Butyl-2-[3-(2-dimethylamino-ethoxy)-phenyl]-2H-pyrazol-3-yl}-3-{(1S,4R)-4-[3-((R)-2-methyl-piperidin-1-yl)-[1,2,4]triazolo[4,3-a]pyridin-6-yloxy]-1,2,3,4-tetrahydro-naphthalen-1-yl}-urea partial formate salt]	< 10	< 10
